1 substance from paper PMC10233823, “Conjugates of Aminoglycosides with Stapled Peptides as a Way to Target Antibiotic-Resistant Bacteria” (ACS Omega, 2023) can be followed below.

Ends that are not written are not given here.

In test [1] the test system is E. coli WR 3551/98. The experiment in a line: microbe, parasite or virus in culture. The test is classed as cell-based, Escherichia coli. The settings on record: E. coli WR 3551/98 (AMK-resistant); MHB, 20 h, 37 °C with shaking, OD600. As to the method: (§1) The antibacterial activity of the conjugates was assessed by determining their minimum inhibitory concentration (MIC) and minimum bactericidal concentration (MBC) against Gram-negative E. coli (K12 MG 1655 and WR 3551/98) and Gram-positive S. aureus (ATCC 29213 and ATCC BAA1720 MRSA) strains (Table 1, Figures S16–S23).
(§2) The MIC values were determined as follows. Bacteria were first cultured overnight in 2 mL of lysogeny broth (LB, VWR Chemicals) at 37 °C with shaking. Next, 20 μL of overnight culture was transferred into 2 mL of […] (MHB, Difco) medium and further cultured at 37 °C with shaking until the culture reached OD600 = 0.3. Subsequently, the culture was diluted 1:100 in a fresh MHB medium, and aliquots of 50 μL were mixed with 50 μL of previously prepared dilutions of the tested compound in MHB on a transparent flat-bottom 96-well plate (Nest). The plate was then sealed with transparent foil (Titer-Tops) and incubated for 20 h, at 37 °C with shaking. Following incubation, optical density at 600 nm was measured using a Tecan Sunrise plate reader. Growth inhibition was determined by comparing the given sample with untreated culture (growth control—GC) with MHB alone (sterility control—SC) as an additional reference. The experiment was conducted in at least two biological replicates of two technical replicates each. Statistical significance was determined by the two-way ANOVA test using GraphPad Prism 9 software.

Test [2] relates to S. aureus ATCC BAA1720 MRSA. The experiment in a line: microbe, parasite or virus in culture. Type of test: cell-based, Staphylococcus aureus. The following applies: MIC wells diluted in fresh MHB, 24 h, 37 °C. As to the method: as §1
(§3) The MBC values were determined by diluting wells from the MIC experiment plate in fresh MHB medium. Dilutions of 10-, 100-, and 1000-times were prepared for the MIC well and up to two-folds higher than MIC concentrations of a given compound. Dilutions were made on a transparent flat-bottom 96-well plate (Nest), which was then sealed and incubated for 24 h, at 37 °C with shaking. The growth of a given sample well was compared with GC and SC controls.

For test [3], the system named is S. aureus ATCC 29213. Put plainly: microbe, parasite or virus in culture. The settings on record: MIC wells diluted in fresh MHB, 24 h, 37 °C, read-out: MBC. The test is classed as cell-based, Staphylococcus aureus. As to the method:
as §1, §3

Test [4] concerns S. aureus ATCC 29213. Put plainly: Checkerboard synergy test. The settings on record: MIC not determined, tested range up to 128 μM. Type of test: cell-based, Staphylococcus aureus. As for the experimental part: The synergy between the compounds was assessed using the checkerboard method in a similar way as mentioned in our previous study.[79],[80] Bacteria were first cultured overnight in 2 mL of LB (VWR Chemicals) at 37 °C with shaking. Next, 20 μL of overnight culture was transferred into 2 mL of MHB medium and further cultured at 37 °C with shaking until the culture reached OD600 = 0.3. Subsequently, culture was diluted 1:200 in a fresh MHB medium, and aliquots of 90 μL were mixed with 10 μL of previously prepared dilutions of tested compounds in MHB on a transparent flat-bottom 96-well plate (Nest). The plate was then sealed with transparent adhesive foil (Titer-Tops) and incubated for 20 h, at 37 °C with shaking. Following incubation, optical density at 600 nm was measured using the Tecan Sunrise plate reader. Growth inhibition was determined by comparing the given sample with untreated culture (GC) with MHB alone (SC) as an additional reference. The FIC index was calculated for the first cell within each row and column where growth inhibition was observed. The following formula was used [drawing 1] Ca, Cb—concentration of the agent in combination, and MICa, MICb—MICs for agent a and agent b alone.
Then, the median FIC was determined for the entire checkerboard. In addition, the minimal and maximal values were distinguished (Table 2). […]

Test [5] has as its system E. coli WR 3551/98. Put plainly: microbe, parasite or virus in culture. The test is classed as cell-based, Escherichia coli. The following applies: MIC wells diluted in fresh MHB, 24 h, 37 °C, read-out: MBC. As for the experimental part: as §1, §3
In the next test the test system is E. coli K12 MG1655. Put plainly: microbe, parasite or virus in culture. The following applies: MIC wells diluted 10-, 100-, 1000-times in fresh MHB, 24 h, 37 °C, bactericidal if no growth at 100- and 1000-times dilutions, read-out: MBC. The test is classed as cell-based, Escherichia coli. As to the method: as §1, §3
For test [6], the system named is S. aureus ATCC BAA1720 MRSA. The experiment in a line: microbe, parasite or virus in culture. The following applies: S. aureus ATCC BAA1720 MRSA (NEO-resistant); MHB, 20 h, 37 °C with shaking, OD600. The test is classed as cell-based, Staphylococcus aureus. As to the method:
as §1, §2

Test [7] relates to S. aureus ATCC 29213. The experiment in a line: microbe, parasite or virus in culture. Type of test: cell-based, Staphylococcus aureus. The settings on record: MHB, 20 h, 37 °C with shaking, OD600. As for the experimental part: as §1, §2

For “GLLKRIKTLL-NH2 (C-terminus assumed) [anoplin, reference compound]”, the MIC (with E. coli WR 3551/98 [1]; in test [6]; with S. aureus ATCC 29213 [7]) was over 32 µM each time. Also, the MBC in test [2] is reported as over 32 µM; in the test with S. aureus ATCC 29213 [3] it was over 32 µM; in the test on E. coli WR 3551/98 [5], over 32 µM; with E. coli K12 MG1655, at least 32 µM. Moreover, the “growth inhibition concentration threshold” value in the test with S. aureus ATCC 29213 [4] was “higher than 128 μM”.
